The subject of one data set is HepG2. The data set can be described thus: Antiproliferative activity against human HepG2 cells assessed as inhibition of cell proliferation incubated for 48 hrs by MTT assay. Conditions: HepG2, 48 h. Type of data set: functional, cell-based.
A further data set concerns HCT-116. The experiment in a line: Antiproliferative activity against human HCT-116 cells assessed as inhibition of cell proliferation incubated for 48 hrs by MTT assay. Type of data set: functional, cell-based. Conditions: HCT-116, 48 h. (Tetrazolium dyes change colour on reduction, which living cells bring about.)
The next data set deals with SMMC-7721. The data set can be described thus: Antiproliferative activity against human SMMC-7721 cells assessed as inhibition of cell proliferation incubated for 48 hrs by MTT assay. Type of data set: functional, cell-based. Conditions: SMMC-7721, 48 h.
A further data set concerns K562. The experiment in a line: Antiproliferative activity against human K562 cells assessed as inhibition of cell proliferation incubated for 48 hrs by MTT assay. It counts as functional, cell-based. Conditions: K562, 48 h.
The test system of data set [1] is HeLa. The data set can be described thus: Cytotoxicity against human HeLa cells assessed as inhibition of cell growth incubated for 48 hrs by MTT assay. Type of data set: functional, cell-based.
For another data set, the system named is A549. The experiment in a line: Cytotoxicity against human A549 cells assessed as inhibition of cell growth incubated for 48 hrs by MTT assay. Conditions: A549, 48 h. It counts as functional, cell-based.
The subject of the next data set is MDA-MB-231. The data set can be described thus: Antiproliferative activity against human MDA-MB-231 cells assessed as inhibition of cell proliferation incubated for 48 hrs by MTT assay. Type of data set: functional, cell-based. To be noted: MDA-MB-231, 48 h.
A further data set relates to CCRF-CEM. The data set can be described thus: Antiproliferative activity against human CEM cells assessed as inhibition of cell proliferation incubated for 48 hrs by coulter counter assay. It counts as functional, cell-based.
In another data set the test system is L1210. The data set can be described thus: Antiproliferative activity against mouse L1210 cells assessed as inhibition of cell proliferation incubated for 48 hrs by coulter counter assay. It counts as functional, cell-based. Conditions: L1210, 48 h.
Data set [2] is described as follows: Antiproliferative activity against human HMEC-1 cells assessed as inhibition of cell proliferation incubated for 48 hrs by coulter counter assay. Type of data set: toxicity, cell-based.
Data set [3] concerns HeLa. The experiment in a line: Antiproliferative activity against human HeLa cells assessed as inhibition of cell proliferation incubated for 48 hrs by coulter counter assay. It counts as functional, cell-based.

The record followed here is ChEMBL document CHEMBL5244223, “l,8-Naphthalimide based DNA intercalators and anticancer agents. A systematic review from 2007 to 2017” (Eur J Med Chem, 2018).

pIC50: −log10 of the molar value. Bounds are passed on as bounds.

For orientation: pIC50 means the negative decadic logarithm of the IC50, by convention in mol/L. For `CCOC(=O)c1ccc2c3c(cccc13)C(=O)N(CCN(C)C)C2=O`, the pIC50 with HepG2 was 4.59; in the data set on HCT-116, below 4.30; with SMMC-7721, 4.86; in the data set on K562 it was below 4.30.
As to `Cc1ccc(-c2cc(C(F)(F)F)nn2-c2ccc3c4c(cccc24)C(=O)N(CCN(C)C)C3=O)cc1`, the pIC50 with HeLa [1] and with A549 was 5.30 in each case.
Turning to `CN(C)CCNc1ncnc2c1cc1c3c(cccc32)C(=O)N(CCN(C)C)C1=O`, the pIC50 in the data set on MDA-MB-231, in the data set with HepG2 and in the data set on SMMC-7721 was 5.95 each time.
The IC50 is the concentration that inhibits the measured activity by half. For `CCOP(=O)(CCn1cc(CN2C(=O)c3cccc4cccc(c34)C2=O)nn1)OCC`, the pIC50 with CCRF-CEM, with L1210 and in the data set on HeLa [3] was below 3.60 throughout. Also, the IC50 at 48 h in data set [2] is above 250 µM.
Regarding `CCOP(=O)(CCCCn1cc(CN2C(=O)c3cccc4cc([N+](=O)[O-])cc(c34)C2=O)nn1)OCC`, the pIC50 with CCRF-CEM, with L1210 and in the data set with HeLa [3] was below 3.60 throughout. In addition, the IC50 at 48 h in [2] was above 250 µM.
Turning to `COc1ccc(-c2cc(C(F)(F)F)nn2-c2ccc3c4c(cccc24)C(=O)N(CCN(C)C)C3=O)cc1`, the pIC50 in the data set on HeLa [1] and in the data set on A549 was 5.30 in each case.
As to `COc1cccc(-c2cc(C(F)(F)F)nn2-c2ccc3c4c(cccc24)C(=O)N(CCN(C)C)C3=O)c1`, the pIC50 with HeLa [1] and with A549 was 5.30 in each case.
Consider `CCCCOC(=O)c1ccc2c3c(cccc13)C(=O)N(CCN(C)C)C2=O`, for which the negative-log IC50 (pIC50) with HepG2, with HCT-116, in the data set on SMMC-7721 and with K562 was below 4.30 in each case.
Take `CCOP(=O)(CC(=O)NCn1cc(CN2C(=O)c3cccc4c(Br)ccc(c34)C2=O)nn1)OCC`: the pIC50 in the data set on CCRF-CEM, in the data set on L1210 and with HeLa [3] was below 3.60 throughout. Besides, the IC50 at 48 h in data set [2] was above 250 µM.
On to `COc1cc(-c2cc(C(F)(F)F)nn2-c2ccc3c4c(cccc24)C(=O)N(CCN(C)C)C3=O)cc(OC)c1OC`, for which the pIC50 with HeLa [1] and in the data set with A549 was 5.30 throughout.
In the case of `CN(C)CCN1C(=O)c2cccc3c2c(cc2c(=O)[nH]cnc23)C1=O`, the pIC50 in the data set with MDA-MB-231, with HepG2 and in the data set on SMMC-7721 was 5.58 in each case.
For `COc1ccccc1-c1cc(C(F)(F)F)nn1-c1ccc2c3c(cccc13)C(=O)N(CCN(C)C)C2=O`, the pIC50 with HeLa [1] and in the data set on A549 was 5.30 each time.
In the case of `CCOP(=O)(CCn1cc(CN2C(=O)c3cccc4c(Br)ccc(c34)C2=O)nn1)OCC`, the pIC50 in the data set on CCRF-CEM, with L1210 and in the data set on HeLa [3] was below 3.60 throughout. Moreover, the IC50 at 48 h in data set [2] is above 250 µM.
`CCCOc1ccc(-c2cc(C(F)(F)F)nn2-c2ccc3c4c(cccc24)C(=O)N(CCN(C)C)C3=O)cc1`: the pIC50 in the data set on HeLa [1] and in the data set on A549 was 5.30 throughout.
With `CCCCCOC(=O)c1ccc2c3c(cccc13)C(=O)N(CCN(C)C)C2=O`, the pIC50 with HepG2, with HCT-116, with SMMC-7721 and in the data set on K562 was below 4.30 throughout.
As for `NCCCNCC(=O)NCCCN1C(=O)c2cccc3cccc(c23)C1=O`, the pIC50 in the data set on MDA-MB-231, with HepG2, in the data set with HCT-116 and in the data set on K562 was 5.54 in each case.
For `CN(C)CCN1C(=O)c2cccc3c2c(cc2c(NCCCN4CCOCC4)ncnc23)C1=O`, the pIC50 in the data set with MDA-MB-231, in the data set on HepG2 and in the data set on SMMC-7721 was 5.95 throughout.
Regarding `NCCCCN1C(=O)c2cccc3c2c(cc2c(=O)[nH]cnc23)C1=O`, the negative logarithm of the IC50 (pIC50) in the data set with MDA-MB-231, in the data set on HepG2 and with SMMC-7721 was 5.58 in each case.
On to `CCOc1ccccc1-c1cc(C(F)(F)F)nn1-c1ccc2c3c(cccc13)C(=O)N(CCN(C)C)C2=O`, for which the pIC50 in the data set with HeLa [1] and with A549 was 5.30 throughout.
As for `NCCCNCCCN1C(=O)c2cccc3c2c(cc2c(=O)[nH]cnc23)C1=O`, the pIC50 with MDA-MB-231, in the data set with HepG2 and in the data set on SMMC-7721 was 5.58 throughout.
As for `NCCCNCCCN1C(=O)c2cccc3cccc(c23)C1=O`, the pIC50 in the data set with HepG2 and in the data set with SMMC-7721 was 5.79 in each case.
For the compound `CCCCOc1cccc(-c2cc(C(F)(F)F)nn2-c2ccc3c4c(cccc24)C(=O)N(CCN(C)C)C3=O)c1`, the pIC50 with HeLa [1] and in the data set with A549 was 5.30 throughout.
On to `CCCOC(=O)c1ccc2c3c(cccc13)C(=O)N(CCN(C)C)C2=O`, for which the pIC50 in the data set with HepG2, with HCT-116, with SMMC-7721 and in the data set on K562 was below 4.30 each time.
On to `NCCCN1C(=O)c2cccc3cccc(c23)C1=O`, for which the pIC50 with HepG2 and in the data set on SMMC-7721 was 5.79 each time.
For `CCCCCCOC(=O)c1ccc2c3c(cccc13)C(=O)N(CCN(C)C)C2=O`, the pIC50 in the data set on HepG2, in the data set on HCT-116, with SMMC-7721 and in the data set with K562 was below 4.30 throughout.
As for `CCCCOc1cc(OCCCC)cc(-c2cc(C(F)(F)F)nn2-c2ccc3c4c(cccc24)C(=O)N(CCN(C)C)C3=O)c1`, the pIC50 in the data set on HeLa [1] and with A549 was 5.30 each time.
As for `CN(C)CCN1C(=O)c2cccc3c2c(cc2c(NCCCCN4CCCC4)ncnc23)C1=O`, the pIC50 with MDA-MB-231, with HepG2 and in the data set with SMMC-7721 was 5.95 throughout.
Consider `CCCCN1C(=O)c2cccc3c2c(cc2c(=O)[nH]cnc23)C1=O`, for which the pIC50 in the data set on MDA-MB-231, in the data set on HepG2 and in the data set with SMMC-7721 was 5.58 in each case.
With `CCCOc1cccc(-c2cc(C(F)(F)F)nn2-c2ccc3c4c(cccc24)C(=O)N(CCN(C)C)C3=O)c1`, the pIC50 in the data set with HeLa [1] and in the data set on A549 was 5.30 each time.
For `COc1ccc(-c2cc(C(F)(F)F)nn2-c2ccc3c4c(cccc24)C(=O)N(CCN(C)C)C3=O)cc1OC`, the pIC50 in the data set on HeLa [1] and in the data set with A549 was 5.30 each time.
For the compound `CCOc1cc(OCC)cc(-c2cc(C(F)(F)F)nn2-c2ccc3c4c(cccc24)C(=O)N(CCN(C)C)C3=O)c1`, the pIC50 in the data set with HeLa [1] and with A549 was 5.30 throughout.
Regarding `CCCCOc1ccccc1-c1cc(C(F)(F)F)nn1-c1ccc2c3c(cccc13)C(=O)N(CCN(C)C)C2=O`, the pIC50 in the data set on HeLa [1] and in the data set on A549 was 5.30 each time.
Consider `O=C1c2cccc3c2c(cc2c(=O)[nH]cnc23)C(=O)N1CCCCN1CCOCC1`, for which the negative-log IC50 (pIC50) with MDA-MB-231, in the data set on HepG2 and in the data set with SMMC-7721 was 5.58 in each case.
For the compound `CN(C)CCN1C(=O)c2cccc3c2c(cc2c(NCCCCN)ncnc23)C1=O`, the pIC50 in the data set on MDA-MB-231, in the data set on HepG2 and in the data set with SMMC-7721 was 5.95 throughout.
In the case of `CN(C)CCN1C(=O)c2cccc3c2c(cc2c(NCCCNCCCN)ncnc23)C1=O`, the pIC50 in the data set on MDA-MB-231, in the data set with HepG2 and in the data set on SMMC-7721 was 5.80 in each case.
Take `CCCOc1cc(OCCC)cc(-c2cc(C(F)(F)F)nn2-c2ccc3c4c(cccc24)C(=O)N(CCN(C)C)C3=O)c1`: the pIC50 in the data set with HeLa [1] and in the data set on A549 was 5.30 each time.
As for `CCOc1ccc(-c2cc(C(F)(F)F)nn2-c2ccc3c4c(cccc24)C(=O)N(CCN(C)C)C3=O)cc1`, the pIC50 in the data set on HeLa [1] and in the data set on A549 was 5.30 in each case.
In the case of `CCCOc1ccccc1-c1cc(C(F)(F)F)nn1-c1ccc2c3c(cccc13)C(=O)N(CCN(C)C)C2=O`, the pIC50 in the data set with HeLa [1] and in the data set with A549 was 5.30 throughout.
As for `CCCCOc1ccc(-c2cc(C(F)(F)F)nn2-c2ccc3c4c(cccc24)C(=O)N(CCN(C)C)C3=O)cc1`, the pIC50 in the data set with HeLa [1] and in the data set with A549 was 5.30 each time.
For `COc1cc(OC)cc(-c2cc(C(F)(F)F)nn2-c2ccc3c4c(cccc24)C(=O)N(CCN(C)C)C3=O)c1`, the pIC50 in the data set with HeLa [1] and in the data set on A549 was 5.30 each time.
As for `CN(C)CCN1C(=O)c2cccc3c(-n4nc(C(F)(F)F)cc4-c4ccccc4)ccc(c23)C1=O`, the pIC50 in the data set with HeLa [1] and in the data set on A549 was 5.30 each time.
For `CCCCCCCCCCCCCCOC(=O)c1ccc2c3c(cccc13)C(=O)N(CCN(C)C)C2=O`, the pIC50 in the data set with HepG2, in the data set with HCT-116, with SMMC-7721 and with K562 was below 4.30 each time.
As to `CCCCCCCCOC(=O)c1ccc2c3c(cccc13)C(=O)N(CCN(C)C)C2=O`, the pIC50 in the data set on HepG2, in the data set on HCT-116, in the data set on SMMC-7721 and in the data set on K562 was below 4.30 each time.
In the case of `CCOc1cccc(-c2cc(C(F)(F)F)nn2-c2ccc3c4c(cccc24)C(=O)N(CCN(C)C)C3=O)c1`, the pIC50 with HeLa [1] and in the data set on A549 was 5.30 throughout.
With `NCCCCNCCCCNCCCCNCC(=O)NCCCN1C(=O)c2cccc3cccc(c23)C1=O`, the pIC50 in the data set on MDA-MB-231, in the data set with HepG2, with HCT-116 and in the data set with K562 was 5.54 in each case.
Consider `COC(=O)c1ccc2c3c(cccc13)C(=O)N(CCN(C)C)C2=O`, for which the pIC50 in the data set with HepG2 is 4.66; in the data set with HCT-116, below 4.30; in the data set on SMMC-7721, 4.66; with K562 it was below 4.30.
In the case of `NCCCNCCCNCC(=O)NCCCN1C(=O)c2cccc3cccc(c23)C1=O`, the negative logarithm of the IC50 (pIC50) in the data set on MDA-MB-231, in the data set with HepG2, with HCT-116 and in the data set with K562 was 5.54 each time.
